Assay results as given in patent US7867983B2, “Methods to protect skeletal muscle against injury” (The University of Connecticut, priority 2007, dated 2011).

What was measured:
[1] = test system: skeletal muscle ischemia/reperfusion injury; assay: Mouse hindlimb ischemia and reperfusion model, Evans Blue dye staining of gastrocnemius muscle, wild-type mice; assay type: in vivo, mouse (C57BL6 wild-type); settings: WT mice; for EBD-positive area: ligand alone i.p. 2 h before 90 min ischemia, PBS vehicle 28%±6%; for EBD-positive area, agonist plus DPCPX: A1 antagonist DPCPX 0.2 mg/kg i.p. 30 min before agonist; for EBD-positive area, agonist plus MRS1191: A3 antagonist MRS1191 0.05 mg/kg i.p. 30 min before agonist
Method: Mouse Hindlimb Ischemia and Reperfusion Model: After 2.5- to 3-month-old wild-type (WT; C57BL6 strain) or PLC β2/β3 knockout mice (in C57BL6 background), each weighing about 23-25 g, were sedated with anesthetic (pentobarbital 50 mg/kg was given by intraperitoneal [i.p.] injection), their right or left hindlimbs (used randomly) were elevated briefly to minimize retained blood before being subjected to ischemia. Ischemia was induced by placement of a constrictor band (Latex O-Rings, Miltex Instruments, York, Pa.) above the greater trochanter with a McGiveney Hemorrhoidal Ligator (7 in long; Miltex). After 90 minutes of warm ischemia at 37° C., the constrictor was removed to allow reperfusion for 24 hours. The mice were continuously maintained on a 37° C. warming pad (Physitemp Instruments Inc, Clifton, N.J.) during the reperfusion. After the mice were killed by anesthetic overdose, the gastrocnemius muscle was quickly frozen, cut into three slices separated by 2-3 mm, and embedded in Shandon Cryomatrix (polyvinyl alcohol 10%, polyethylene glycol 4%; Anatomical Pathology U.S.A., Pittsburgh, Pa.). Each slice was processed as one 10 μm section on a Thermo Electron/Shandon Cryotome (Anatomical Pathology), fixed in ice-cold acetone, air dried, and washed in phosphate-buffered saline (PBS). Each 10 μm section had seven fields. Gastrocnemius was used because of its high proportion of fast-twitch muscle, which is prone to ischemia and reperfusion injury.
Quantification of Skeletal Muscle Injury: Evans Blue dye (EBD), prepared as a 1% wt/vol solution to yielding 1 mg of EBD/10 g body weight), was given via a separate i.p. injection 2.5 hours before the induction of ischemia. EBD stained only injured muscle and EBD-positive cells were quantified. The percent EBD-positive cells in each field was averaged with those from all seven fields within one 10 μm section. The averaged fraction of EBD-positive cells in each 10 μm section was similar among the three sections. Each 10 μm section was also stained with rabbit polyclonal anti-skeletal muscle actin antibodies (ab15265; Abcam Inc, Cambridge, Mass.) and goat polyclonal anti-rabbit IgG conjugated with fluorescein isothiocyanate. Sections were mounted, and their cross sections were viewed with fluorescent microscopy (Evans Blue dye [EBD]-positive cells via a DM580 band pass filter 510-560 nm with emission of 590 nm; fluorescein isothiocyanate cells via a DM510 filter of 450-490 nm with emission at 520 nm). Each field was counted at 20× magnification and their images captured via the two filters for quantification of muscle injury as follows. Images were acquired and stored as JPEG files with a Macrofire camera (Macrofire 1.0, Optronics, Goleta, Calif.). The ImageProPlus Program (version 5.0, Media Cybernetics, Inc, Silver Spring, Md.) was used for the quantitative determination. The percentage of EBD-positive areas was calculated by dividing the area of EBD staining by the total muscle cells, a quantity defined as the total area stained by anti-skeletal muscle actin antibodies and was identical to the total area in each field minus the area not occupied by any cell. The actin-stained area included EBD-positive area, as shown in superimposed EBD- and actin antibody-stained images. Serum creatine kinase (CK) activity was measured with a previously described procedure. The fraction of skeletal muscle staining positive for EBD represented a direct determination of the muscle that was injured, and the serum CK level provided a circulating index of the extent of skeletal muscle injury. Both are established and accepted methods to quantify skeletal muscle injury.
Protocol for Administration of Adenosine Receptor Agonist and Antagonist. […]

[2] = test system: skeletal muscle ischemia/reperfusion injury; assay: Mouse hindlimb ischemia and reperfusion model, Evans Blue dye staining, PLC β2/β3-null mice; assay type: in vivo; settings: agonist alone i.p. before ischemia/reperfusion, mean±SE, PBS 23.4%±4%
Method: Mouse Hindlimb Ischemia and Reperfusion Model: After 2.5- to 3-month-old wild-type (WT; C57BL6 strain) or PLC β2/β3 knockout mice (in C57BL6 background), each weighing about 23-25 g, were sedated with anesthetic (pentobarbital 50 mg/kg was given by intraperitoneal [i.p.] injection), their right or left hindlimbs (used randomly) were elevated briefly to minimize retained blood before being subjected to ischemia. Ischemia was induced by placement of a constrictor band (Latex O-Rings, Miltex Instruments, York, Pa.) above the greater trochanter with a McGiveney Hemorrhoidal Ligator (7 in long; Miltex). After 90 minutes of warm ischemia at 37° C., the constrictor was removed to allow reperfusion for 24 hours. The mice were continuously maintained on a 37° C. warming pad (Physitemp Instruments Inc, Clifton, N.J.) during the reperfusion. […]
Quantification of Skeletal Muscle Injury: Evans Blue dye (EBD), prepared as a 1% wt/vol solution to yielding 1 mg of EBD/10 g body weight), was given via a separate i.p. injection 2.5 hours before the induction of ischemia. EBD stained only injured muscle and EBD-positive cells were quantified. […] Each field was counted at 20× magnification and their images captured via the two filters for quantification of muscle injury as follows. […] The ImageProPlus Program (version 5.0, Media Cybernetics, Inc, Silver Spring, Md.) was used for the quantitative determination. The percentage of EBD-positive areas was calculated by dividing the area of EBD staining by the total muscle cells, a quantity defined as the total area stained by anti-skeletal muscle actin antibodies and was identical to the total area in each field minus the area not occupied by any cell. […] Serum creatine kinase (CK) activity was measured with a previously described procedure. […] Both are established and accepted methods to quantify skeletal muscle injury. […]

[3] = test system: exercise-induced skeletal muscle injury; assay: 15% downhill treadmill exercise-induced skeletal muscle injury, wild-type mice; assay type: in vivo, mouse (wild type); settings: wild-type mice injected with agonist, then exercised; P<0.05 vs vehicle
Excerpt: (§1) Wild type (WT), beta-sarcoglycan-deficient, and PLCβ2/β3-null mice were all 8-10 weeks old and have similar body weights. Beta-sarcoglycan-null mice have been developed as a mouse model of limb-girdle muscular dystrophy. PLCβ2/β3-null mice have been used as a model to determine the physiologic role of these enzyme isoforms in mediating the effect of various adenosine receptor subtypes. The 15% downhill treadmill exercise is an established method to cause exertion-related skeletal muscle injury in rodents and has been used to gauge the success of therapy aimed at reducing skeletal muscle injury in mouse models of muscular dystrophy. Mice were exercised to exhaustion and for similar amount of time. […] Thus, only serum CK activity was used to quantify the extent of skeletal muscle injury in these normal WT mice. In the beta-sarcoglycan-null mice, there was already a significant level of skeletal muscle damage at baseline (in the absence of imposed physical exercise, EBD-positive area was 9.7±2.0%, n=28 mice, SE; serum CK was 2363±310, U/L, n=30 mice, SE). Both EBD staining and serum CK were used to quantify the extent of skeletal muscle injury.
Adult wild-type mice were injected with the A3 receptor agonist Cl-IBMECA. They were then subjected to exercise, and their skeletal muscle injuries were quantified using serum CK was used as a marker of muscle injury. […]

[4] = test system: exercise-induced skeletal muscle injury; assay: 15% downhill treadmill exercise-induced skeletal muscle injury, beta-sarcoglycan-null mice (limb-girdle muscular dystrophy model); assay type: in vivo, mouse (beta-sarcoglycan-null); settings: beta-sarcoglycan-null mice treated, then exercised
Excerpt: as §1
Beta-sarcoglycan-null mice were used as a model of Limb-Girdle Muscular Dystrophy. […] The extent of skeletal muscle injury was determined by (FIG. 10) serum CK level and (FIG. 11) percentage of EBD-stained area. […]

[5] = test system: exercise-induced skeletal muscle injury; assay: 15% downhill treadmill exercise-induced skeletal muscle injury, PLCβ2/β3-null mice; assay type: in vivo, mouse (PLCβ2/β3-null); settings: PLCβ2/β3-null mice treated, then exercised; P>0.1 vs PBS
Excerpt: as §1
PLCβ2/β3-null mice were used as a model to determine the role of PLCβ2/β3 in mediating the protective effect on exercise-induced injury by Cl-IBMECA. […] Serum CK levels were used to quantify the extent of skeletal muscle injury. […]

[6] = 90 min ischemia, 24 h reperfusion, mean±SE

## CCOC(=O)C1=C(C)NC(c2ccccc2)=C(C(=O)OCc2ccccc2)C1C#Cc1ccccc1 (racemic) [MRS1191, 3-ethyl 5-benzyl-2-methyl-6-phenyl-4-phenylethynyl-1,4-(±)-dihydropyridine-3,5-dicarboxylate]
[1]; 24 h reperfusion, mean±SE
  EBD-positive area: 23%±4.4%

## OC[C@H]1O[C@@H](n2cnc3c(NC4CCCC4)nc(Cl)nc32)[C@H](O)[C@@H]1O [CCPA, 2-chloro-N^6-cyclopentyladenosine]
[1]; [6]
  EBD-positive area, agonist plus DPCPX: 22%±3.3%
  EBD-positive area, agonist plus MRS1191: 12.2%±2.4%
[1]; 24 h reperfusion, mean±SE
  EBD-positive area: 10.8%±2%
[2]
  EBD-positive area: 8.5%±2.5%

## CCNC(=O)[C@H]1O[C@@H](n2cnc3c(N)nc(NCCc4ccc(CCC(=O)O)cc4)nc32)[C@H](O)[C@@H]1O [CGS21680, 2-p-(2-Carboxyethyl)phenethylamino-5′-N-ethylcarboxamidoadenosine]
[1]; [6]
  EBD-positive area, agonist plus DPCPX: 14.7%±2.3%
  EBD-positive area, agonist plus MRS1191: 2.4%±1.25%
[1]; A2A antagonist SCH 442416 0.017 mg/kg i.p. 30 min before agonist, 90 min ischemia, 24 h reperfusion, mean±SE
  EBD-positive area, agonist plus SCH 442416: 26%±4%
[1]; 24 h reperfusion, mean±SE
  EBD-positive area: 6.6%±3.5%
[2]
  EBD-positive area: 4%±1.1%

## CNC(=O)[C@H]1O[C@@H](n2cnc3c(NCc4cccc(I)c4)nc(Cl)nc32)[C@H](O)[C@@H]1O [Cl-IBMECA, 2-chloro-N^6-(3-iodobenzyl)adenosine-5′-N-methyluronamide]
[1]; [6]
  EBD-positive area, agonist plus DPCPX: 4%±1.6%
  EBD-positive area, agonist plus MRS1191: 21.5%±3.5%
[1]; 24 h reperfusion, mean±SE
  EBD-positive area: 5.4%±2.6%
[2]
  EBD-positive area: 22%±3.6%
[3]
  serum CK vs. vehicle after exercise: reduction in the serum CK
[4]; P=0.0066 vs vehicle
  serum CK level vs. vehicle after exercise: reduction in the serum CK level
[4]; P=0.03 vs vehicle
  percentage of EBD-positive area vs. vehicle after exercise: reduced the percentage of EBD-positive area
[5]
  serum CK level vs. PBS after exercise: unable to induce a reduction in the serum CK level

## CCCn1c(=O)c2[nH]c(C3CCCC3)nc2n(CCC)c1=O [DPCPX]
[1]; 24 h reperfusion, mean±SE
  EBD-positive area: 19.3%±4.4%

## C[C@H](Cc1ccccc1)Nc1ncnc2c1ncn2[C@@H]1O[C@H](CO)[C@@H](O)[C@H]1O [R-PIA]
[1]; given prior to ischemia and reperfusion, 0.05 mg/kg i.p.
  extent of injury (EBD staining), result in words: significant reduction in the extent of injury
